Test results as given in publication PMC9441481, “Risk assessment and molecular mechanism study of drug-drug interactions between rivaroxaban and tyrosine kinase inhibitors mediated by CYP2J2/3A4 and BCRP/P-gp” (Frontiers in Pharmacology, 2022).
“Also recorded” adds a separate entry of the source. Where two headings read alike, the source gives them in different places. Values belong to the molecule of their own block, whether it stands above or below them.

How the values were obtained:
[1] = Rivaroxaban pharmacokinetics in rats, oral administration with or without TKIs; type: in vivo, Wistar rats
Method: (§1) The LC-MS/MS method was used to quantitatively determine rivaroxaban for cell and animal experiments. LC-MS/MS analysis was performed using an API 3200 triple-quadrupole mass spectrometer (Applied Biosystems, Concord, Ontario, Canada) and an Agilent LC system Agilent HP1200 (Agilent Technology Inc. CA, United States). The column was a Hypersil ODS-BP column (150 mm × 2.1 mm, 5 μm; Dalian Elite Analytical Instruments Co. Ltd. China). […] The flow rate of the mobile phase was 0.4 ml/min. The mobile phase contained acetonitrile and water with 0.2% (v/v) formic acid at 65:35 (v/v) for rivaroxaban in cell experiments. The determination of rivaroxaban in the blood was achieved by gradient elution methods with a mobile phase of acetonitrile (A) and pure water with 10 mM ammonium acetate (B).
(§2) To further investigate the DDI risk between rivaroxaban and the TKIs, the pharmacokinetic parameters were measured in Wistar rats (male, 160–200 g). The experiments were reviewed and approved by the Experimental Animal Centre of Dalian Medical University. […] All rats had free access to food and water and were fed adaptively for 7 days. […] Thirty-six rats were divided into six groups randomly. […] After centrifugation, the plasma proteins were precipitated using acetonitrile, followed by vortexing and centrifugation.
(§3) All pharmacokinetic parameters in the present study were analyzed using the Drug and Statistics software (DAS 2.0, Windows). In the bidirectional experiments, the apparent permeability values (Papp), efflux ratio (ER), and net flux ratio were calculated by Eqs. […] The transport of rivaroxaban was assessed to determine apparent Michaelis–Menten constants (Km,app). […] AP is transported from the apical to the basolateral side, and BL is transported from the basolateral to the apical side. Net flux ratiomax is the maximal effect, C is the concentration of rivaroxaban, and h is the Hill coefficient of the sigmoid model.

P-gp [2] = molecular target: T1, P-gp (Homo sapiens, UniProt P08183); settings: MDR1-MDCK cells, TKI 5 μM
T1 sequence (P08183 whole entry): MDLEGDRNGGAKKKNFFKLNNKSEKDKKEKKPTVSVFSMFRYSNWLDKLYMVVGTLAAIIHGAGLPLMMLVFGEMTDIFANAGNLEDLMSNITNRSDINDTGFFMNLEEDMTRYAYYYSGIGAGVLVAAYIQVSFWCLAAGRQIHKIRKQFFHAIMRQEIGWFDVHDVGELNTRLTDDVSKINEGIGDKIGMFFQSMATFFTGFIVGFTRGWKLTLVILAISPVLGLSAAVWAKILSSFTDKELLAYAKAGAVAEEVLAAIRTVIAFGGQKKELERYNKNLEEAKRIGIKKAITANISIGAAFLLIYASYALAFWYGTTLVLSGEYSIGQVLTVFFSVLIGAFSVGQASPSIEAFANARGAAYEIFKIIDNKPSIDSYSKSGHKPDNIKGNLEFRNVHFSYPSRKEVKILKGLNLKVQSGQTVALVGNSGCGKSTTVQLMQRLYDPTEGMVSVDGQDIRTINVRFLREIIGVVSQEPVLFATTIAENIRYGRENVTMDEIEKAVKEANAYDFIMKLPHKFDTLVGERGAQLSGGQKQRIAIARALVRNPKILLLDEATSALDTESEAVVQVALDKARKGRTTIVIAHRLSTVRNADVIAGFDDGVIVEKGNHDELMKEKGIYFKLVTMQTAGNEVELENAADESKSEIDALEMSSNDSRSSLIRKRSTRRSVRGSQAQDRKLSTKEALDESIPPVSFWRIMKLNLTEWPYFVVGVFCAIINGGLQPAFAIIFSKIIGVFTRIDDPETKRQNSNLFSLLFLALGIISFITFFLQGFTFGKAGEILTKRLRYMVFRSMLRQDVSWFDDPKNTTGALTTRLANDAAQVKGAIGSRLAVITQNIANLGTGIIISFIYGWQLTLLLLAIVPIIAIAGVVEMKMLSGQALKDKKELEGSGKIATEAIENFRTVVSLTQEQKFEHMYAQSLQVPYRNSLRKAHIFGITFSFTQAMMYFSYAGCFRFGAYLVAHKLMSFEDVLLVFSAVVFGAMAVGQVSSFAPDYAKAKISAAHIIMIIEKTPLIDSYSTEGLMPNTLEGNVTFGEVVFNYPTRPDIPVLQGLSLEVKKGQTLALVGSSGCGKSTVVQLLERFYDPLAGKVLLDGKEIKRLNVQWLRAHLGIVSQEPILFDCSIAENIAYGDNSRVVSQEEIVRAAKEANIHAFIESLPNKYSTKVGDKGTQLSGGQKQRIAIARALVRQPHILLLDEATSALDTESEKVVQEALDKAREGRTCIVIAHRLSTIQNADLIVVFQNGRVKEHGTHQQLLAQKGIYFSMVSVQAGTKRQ
Method: Mock-MDCK and MDR1-MDCK cells were seeded in six-well plates and grown to 80% confluency.

[3] = patients with solid tumors; ref Gschwind et al. (2005), Sparano et al. (2009), Di Gion et al. (2011), Scheffler et al. (2011); read-out: I (Cmax of patients with solid tumors); cited from earlier work
CYP2J2 and CYP3A4 = settings: predicted increase in rivaroxaban exposure from CYP2J2 and CYP3A4 inhibition
Source text: Kinetic constants were included in the mechanistic static model to explore reversible inhibition and the TDI. […] In the present study, this model was designed to explore the contributions of enzyme inhibition in the prediction of DDI risk. The area under the curve ratio (AUC ratio/AUCR) in the presence of a pharmacokinetic DDI was used as the index, as described by Eq. 2.

BCRP = molecular target: T2, BCRP (Homo sapiens, UniProt Q9UNQ0); assay: in vitro
T2 sequence (Q9UNQ0 1-655): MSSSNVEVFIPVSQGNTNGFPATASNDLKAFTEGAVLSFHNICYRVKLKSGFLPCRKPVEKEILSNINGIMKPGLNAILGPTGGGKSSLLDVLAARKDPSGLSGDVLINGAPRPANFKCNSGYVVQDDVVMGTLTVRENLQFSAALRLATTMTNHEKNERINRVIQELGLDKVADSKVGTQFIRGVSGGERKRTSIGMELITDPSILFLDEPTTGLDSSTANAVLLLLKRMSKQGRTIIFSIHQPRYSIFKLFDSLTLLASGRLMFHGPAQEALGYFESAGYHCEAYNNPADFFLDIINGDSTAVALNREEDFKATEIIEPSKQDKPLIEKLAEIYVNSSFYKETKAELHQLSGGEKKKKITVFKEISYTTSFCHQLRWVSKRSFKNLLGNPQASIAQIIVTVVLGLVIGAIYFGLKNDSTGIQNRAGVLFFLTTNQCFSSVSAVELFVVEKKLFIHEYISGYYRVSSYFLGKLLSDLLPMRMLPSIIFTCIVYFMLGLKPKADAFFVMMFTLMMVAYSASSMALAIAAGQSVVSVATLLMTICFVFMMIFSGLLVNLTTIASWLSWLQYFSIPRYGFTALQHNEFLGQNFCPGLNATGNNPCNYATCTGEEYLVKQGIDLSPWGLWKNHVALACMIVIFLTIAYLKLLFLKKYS
Method: as §1
(§4) Mock-MDCK, MDR1-MDCK, and ABCG2-MDCK cells were seeded in 24-well transwell inserts (0.33 cm^2, 0.4 μm) at a density of 2.5 × 10^5 cells/ml, and cells were allowed to culture for 3–5 days to form cell monolayers. The Millicell-ERS system was used to measure the TEER (Trans Epithelial Electric Resistance) values of the monolayers. […] Briefly, the monolayer was washed gently using 37°C HBSS (pH 7.4) and preincubated with HBSS for 10 min at 37°C. Then, various concentrations of TKIs were added to the HBSS on either the basolateral (total volume of 800 μl) or apical (total volume of 200 μl) side of the monolayers, and the cells in the transwell inserts were allowed to further incubate at 37°C for 2 h. At last, a 100-μl solution was taken from the other side for quantitative analysis by LC-MS/MS.
as §3

[4] = test system: rivaroxaban metabolism in HLM; assay: Inhibition of rivaroxaban metabolism in HLM incubation; type: in vitro ADME; settings: human, pooled human liver microsomes, probe rivaroxaban (concentration chosen from Km, 22.81 μM for HLM), HLM 0.3 mg/mL, main metabolite formation, five independent experiments, read-out: IC50 of TKI inhibition of rivaroxaban metabolism, HLM
Method: The formation of the main metabolite of rivaroxaban in the CYP inhibition assays was quantitatively determined using HPLC. The mobile phase consisted of 60% methanol (A pump) and 40% pure water with 0.2% formic acid (B pump) with isocratic elution.
The inhibitory effect of the TKIs on the metabolism of rivaroxaban in recombined P450 isoforms and HLM incubations was compared by quantifiably detecting the production of the major metabolite using HPLC. The concentrations of HLM, CYP2J2, and CYP3A4 were 0.3, 0.4, and 0.6 mg mL^−1, respectively. […] Briefly, after 5-min preincubation of potential inhibitors with isoforms, NADPH was added to initiate the reaction. The reaction mixture was incubated at 37°C for 60 min, and ice acetonitrile was used for terminating the reaction. The ratio of major metabolite production of rivaroxaban in the TKI incubation group to that obtained in the control group represents the inhibitory activity.
To explore the inhibitory effects of the three TKIs on rivaroxaban metabolism, three concentrations of TKIs (1, 10, and 100 μM) were used to perform the in vitro enzyme incubations. The ratio of the rivaroxaban main metabolite formation in the incubation with the TKIs to that without inhibitors represented the inhibitory activity.
The IC50 values were obtained by nonlinear fitting of the TKI concentration and the remaining enzyme activity.

P-gp [5] = molecular target: T1, P-gp; assay: in vitro
Method: as §1, §4, §3

[6] = Rivaroxaban pharmacokinetics in rats, intravenous administration with or without imatinib; type: in vivo; settings: male, Wistar, rat, plasma, 0.4 mg/kg, i.v.
Method: as §1, §2, §3

recombinant human CYP2J2 = molecular target: T3, recombinant human CYP2J2 (Homo sapiens, UniProt P51589); design: method as in Zhao et al., 2022; settings: ref Zhao et al., 2022, cited from earlier work
T3 sequence (P51589 1-502): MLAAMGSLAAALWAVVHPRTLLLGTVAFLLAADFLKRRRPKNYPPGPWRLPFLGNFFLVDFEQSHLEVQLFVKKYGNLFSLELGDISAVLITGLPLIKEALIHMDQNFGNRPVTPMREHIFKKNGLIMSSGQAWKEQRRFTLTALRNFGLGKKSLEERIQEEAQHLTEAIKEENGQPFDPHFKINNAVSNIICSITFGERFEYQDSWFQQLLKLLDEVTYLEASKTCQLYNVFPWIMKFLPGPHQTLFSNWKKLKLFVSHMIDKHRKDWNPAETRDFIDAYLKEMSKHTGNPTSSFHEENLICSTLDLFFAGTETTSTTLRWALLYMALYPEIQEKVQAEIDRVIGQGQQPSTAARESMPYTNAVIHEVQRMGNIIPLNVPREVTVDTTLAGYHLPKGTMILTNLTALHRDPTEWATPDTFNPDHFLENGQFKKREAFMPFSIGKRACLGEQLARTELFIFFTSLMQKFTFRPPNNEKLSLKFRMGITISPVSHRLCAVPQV

recombinant human CYP3A4 = recombinant human CYP3A4 (Homo sapiens, UniProt P08684); design: method as in Zhao et al., 2022; settings: ref Zhao et al., 2022, cited from earlier work
Sequence of recombinant human CYP3A4 (P08684 whole entry): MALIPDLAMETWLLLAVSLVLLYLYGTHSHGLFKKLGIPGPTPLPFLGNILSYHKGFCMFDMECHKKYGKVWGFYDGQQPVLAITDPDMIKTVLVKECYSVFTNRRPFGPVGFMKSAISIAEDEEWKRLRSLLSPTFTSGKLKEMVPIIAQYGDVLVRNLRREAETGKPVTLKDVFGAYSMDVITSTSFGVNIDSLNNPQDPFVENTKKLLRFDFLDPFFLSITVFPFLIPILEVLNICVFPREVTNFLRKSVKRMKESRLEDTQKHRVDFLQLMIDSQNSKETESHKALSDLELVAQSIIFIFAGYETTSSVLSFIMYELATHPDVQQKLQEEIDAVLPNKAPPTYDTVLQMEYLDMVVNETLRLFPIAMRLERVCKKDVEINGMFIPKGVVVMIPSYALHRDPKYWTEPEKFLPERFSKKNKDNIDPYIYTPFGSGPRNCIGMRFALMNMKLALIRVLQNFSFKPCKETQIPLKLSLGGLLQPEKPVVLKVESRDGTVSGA

[7] = test system: pooled human liver microsomes (HLM); design: method as in Zhao et al., 2022; settings: ref Zhao et al., 2022; read-out: Km of rivaroxaban metabolism, HLM; cited from earlier work
[8] = design: method as in Mueck et al., 2013; settings: ref Mueck et al., 2013; cited from earlier work
[9] = design: method as in Zheng et al., 2019; settings: ref Zheng et al., 2019; cited from earlier work
[10] = design: method as in Chong et al., 2020; settings: rats; ref Chong et al., 2020; cited from earlier work
[11] = male, Wistar, rat, plasma, po, rivaroxaban 2.1 mg/kg, n = 5

intracellular fluorescence intensity of rhodamine 123 (fluorescence imaging) (P-gp [2]): slight increase | AUC increase (%) (CYP2J2 and CYP3A4): 6–11% | AUC increase (%) (CYP2J2 and CYP3A4; listed as gefitinib): not to cause a significant change
Structure (SMILES): COc1cc2ncnc(Nc3ccc(F)c(Cl)c3)c2cc1OCCCN1CCOCC1 [Gefitinib]
effect on rivaroxaban exposure / pharmacokinetics in vivo ([1]; p.o.): almost did not affect; also recorded: did not show obvious changes | Cmax [3]: 190 to 356 nM

intracellular fluorescence intensity of rhodamine 123 (fluorescence imaging) (P-gp [2]): significantly increased | inhibition at 2 h, 5 µM (BCRP; human, pH 7.4): > 50% | IC50 at 60 min [4]: 1.7 ± 0.119 µM | inhibition at 2 h (P-gp [5]; human, pH 7.4): ~20%
Structure (SMILES): Cc1ccc(NC(=O)c2ccc(CN3CCN(C)CC3)cc2)cc1Nc1nccc(-c2cccnc2)n1 [Imatinib]
Cmax [3]: 4170 to 9280 nM

AUC(0-t) [1, 11]: 1550 ± 268 ng·h/mL | Cmax [1, 11]: 130 ± 22.7 ng/mL | Tmax [1, 11]: 4 h | AUC(0-t) ([6]; n = 5): 4650 ± 446 ng·h/mL | Cmax ([6]; n = 5): 3940 ± 780 ng/mL | clearance ([6]; n = 5, read-out: CL of rivaroxaban (converted)): 1.38 mL/min/kg | half-life ([6]; n = 5, read-out: t1/2 of rivaroxaban (converted)): 2.44 ± 0.757 h | Net flux ratio max, BCRP (BCRP; ABCG2-MDCK cells): 4.868 fold | Km at 2 h (BCRP; human, pH 7.4): 3.46 µM | net flux ratio, transportation mediated by BCRP (BCRP; substrate identification): more than 2 folds | Net flux ratio max, P-gp (P-gp [5]; MDR1-MDCK cells): 10.300 fold | Km at 2 h (P-gp [5]; human, MDCK, pH 7.4): 8.42 µM | net flux ratio, transportation mediated by P-gp (P-gp [5]; substrate identification): more than 2 folds
Structure (SMILES): O=C(NC[C@H]1CN(c2ccc(N3CCOCC3=O)cc2)C(=O)O1)c1ccc(Cl)s1 [Rivaroxaban]
fraction of rivaroxaban metabolized by CYP2J2 (recombinant human CYP2J2; input of static model): 0.95 | catalytic efficiency of CYP2J2 relative to CYP3A4 (recombinant human CYP2J2): approximately 39 fold | Km (recombinant human CYP2J2; read-out: Km of rivaroxaban metabolism, CYP2J2): 19.4 µM | fraction of rivaroxaban metabolized by CYP3A4 (recombinant human CYP3A4; input of static model): 0.025 | Km (recombinant human CYP3A4; read-out: Km of rivaroxaban metabolism, CYP3A4): 47 µM | Km [7]: 22.8 µM | dose eliminated via hydrolysis of the amide bonds [8]: approximately 14%

IC50 at 60 min [4]: 84.2 ± 7.34 µM | AUC increase (%) (CYP2J2 and CYP3A4): 2% | AUC increase (%) (CYP2J2 and CYP3A4; listed as sunitinib): not to cause a significant change
Structure (SMILES): CCN(CC)CCNC(=O)c1c(C)[nH]c(/C=C2\C(=O)Nc3ccc(F)cc32)c1C [Sunitinib]
Cmax [3]: 63 to 69.5 nM

Structure (SMILES): CCOC(=O)[C@H](CCc1ccccc1)N[C@@H](C)C(=O)N1CCC[C@H]1C(=O)O [enalapril]
increase of the AUC value of rivaroxaban [9]: 20% | increase of the Cmax value of rivaroxaban [9]: 20%

Structure (SMILES): CCCSc1nc(N[C@@H]2C[C@H]2c2ccc(F)c(F)c2)c2nnn([C@@H]3C[C@H](OCCO)[C@@H](O)[C@H]3O)c2n1 [ticagrelor]
increase of the AUC of rivaroxaban [10]: two folds
